# Measured values: US6506800B2, “1,4 diaryl-2,3-difluoro-2-butene insecticidal and acaricidal agents” (BASF Aktiengesellschaft, priority 2000, dated 2003)
# What was measured:
# Assay type in all cases: in vivo
# [1] = system: Heliothis virenscens, 3rd instar tobacco budworm (TBW); test: Tobacco budworm (TBW) cotton cotyledon dip test; set-up: key: 0 = no effect; 1 = 10-25% kill; 2 = 26-35% kill; 3 = 36-45% kill; 4 = 46-55% kill; 5 = 56-65% kill; 6 = 66-75% kill; 7 = 76-85% kill; 8 = 86-99% kill; 9 = 100% kill; details: 3 days, kill rating 0-9
# Procedure: (§1) Test solutions are prepared by dissolving the test compound in a 35% acetone in water mixture to give a concentration of 10000 ppm. Subsequent dilutions are made with water as needed.
# Heliothis virenscens, 3rd instar tobacco budworm (TBW)
# Cotton cotyledons are dipped in the test solution and allowed to dry in a hood. When dry, each is cut into quarters and ten sections are placed individually in 30 ml plastic medicine cups containing a 5 to 7 mm long piece of damp dental wick. One 3rd instar caterpillar is added to each cup and a cardboard lid placed on the cup. Treatments are maintained for 3 days before mortality counts and estimates of reduction in feeding damage are made.
# [2] = system: Spodoptera eridania, 3rd instar larvae, southern armyworm (SAW); test: Southern armyworm (SAW) leaf-dip test; details: lima bean leaf dip, after 5 days, kill rating 0-9
# Procedure: as §1
# Spodoptera eridania, 3rd instar larvae, southern armyworm (SAW)
# A Sieva lima bean leaf expanded to 7-8 cm in length is dipped in the test solution with agitation for 3 seconds and allowed to dry in a hood. The leaf is then placed in a 100×10 mm petri dish containing a damp filter paper on the bottom and ten 3rd instar caterpillars. After 5 days, observations are made of mortality, reduced feeding, or any interference with normal molting.
# [3] = system: Aphis fabae, mixed instar, bean aphid (BA); test: Bean aphid (BA) spray test on nasturtium; set-up: key: 0 = no effect; 1 = 10-25% kill; 2 = 26-35% kill; 3 = 36-45% kill; 4 = 46-55% kill; 5 = 56-65% kill; 6 = 66-75% kill; 7 = 76-85% kill; 8 = 86-99% kill; 9 = 100% kill; details: spray on infested nasturtium plants, 2 days, kill rating 0-9
# Procedure: Test solutions are prepared by dissolving the test compound in a 35% acetone in water mixture to give a concentration of 10000 ppm. Subsequent dilutions are made with water as needed. Aphis fabae, mixed instar, bean aphid (BA) Pots containing single nasturtium plants (Tropaeolum sp.) about 5 cm tall are infested with about 100-200 aphids one day before the test. Each pot is sprayed with the test solution for 2 revolutions of a 4 rounds per minute (rpm) turntable in a hood. The spray is directed to give complete coverage of the plants and aphids. The sprayed pots are set on their sides on white trays and held for 2 days, following which mortality estimates are made.
# [4] = system: Diabrotica virgifera virgifera Leconte, 3rd instar western corn rootworm (WCR); test: Western corn rootworm (WCR) soil test; details: 1.25 mg active ingredient per jar in soil (approx. 50 kg/ha), 5 days, kill rating 0-9
# Procedure: Diabrotica virgifera virgifera Leconte, 3rd instar western corn rootworm (WCR) One ccm of fine talc is placed in a 30 ml wide-mouth screw-top glass jar. One ml of the appropriate acetone test solution is pipetted onto the talc so as to provide 1.25 mg of active ingredient per jar. The jars are set under a gentle air flow until the acetone is evaporated. The dried talc is loosened, 1 ccm of millet seed is added to serve as food for the insects and 25 ml of moist soil is added to each jar. The jar is capped and the contents thoroughly mixed mechanically. Following this, ten 3rd instar rootworms are added to each jar and the jars are loosely capped to allow air exchange for the larvae. The treatments are held for 5 days when mortality counts are made. Missing larvae are presumed dead, since they decompose rapidly and cannot be found. The concentrations of active ingredient used in this test correspond approximately to 50 kg/ha.
# [5] = system: Tetranychus urticae (OP-resistant strain), 2-spotted spider mite (TSM); test: 2-spotted spider mite (TSM) plant dip test; set-up: key: 0 = no effect; 1 = 10-25% kill; 2 = 26-35% kill; 3 = 36-45% kill; 4 = 46-55% kill; 5 = 56-65% kill; 6 = 66-75% kill; 7 = 76-85% kill; 8 = 86-99% kill; 9 = 100% kill; details: dip of infested lima bean plants, 2 days, kill rating 0-9
# Procedure: as §1
# Tetranychus urticae (OP-resistant strain), 2-spotted spider mite (TSM)
# Sieva lima bean plants with primary leaves expanded to 7-8 cm are selected and cut back to one plant per pot. A small piece is cut from an infested leaf taken from the main colony and placed on each leaf of the test plants. This is done about 2 hours before treatment to allow the mites to move over to the test plant to lay eggs. By the size of the cut, infested leaf is varied to obtain about 100 mites per leaf. At the time of test treatment, the piece of leaf used to transfer the mites is removed and discarded. The newly-infested plants are dipped in the test solution for 3 seconds with agitation and set in the hood to dry. After 2 days, one leaf is removed and mortality counts are made.
Compound,TBW (100 ppm) rating [1],SAW (100 ppm) rating [2],BA (100 ppm) rating [3],WCR (50 ppm) rating [4],TSM (100 ppm) rating [5]
"COCCC(/C(F)=C(\F)Cc1ccc(F)c(Oc2ccccc2)c1)c1ccc(Cl)cc1 (centres unmarked) [Compound 4, 4-[(2E)-4-(4-chlorophenyl)-2,3-difluoro-6-methoxy-2-hexenyl]-1-fluoro-2-phenoxybenzene]",9 (9 = 100% kill),9 (9 = 100% kill),0,9 (9 = 100% kill),0
"C=CC(/C(F)=C(\F)Cc1cccc(Oc2ccccc2)c1)c1ccc(Cl)cc1 (centres unmarked) [Compound 3, 1-[(2E)-4-(4-chlorophenyl)-2,3-difluoro-2,5-hexadienyl]-3-phenoxybenzene]",9 (9 = 100% kill),9 (9 = 100% kill),9 (9 = 100% kill),9 (9 = 100% kill),0
"COCCC(/C(F)=C(\F)Cc1cccc(Oc2ccccc2)c1)c1ccc(Cl)cc1 (centres unmarked) [Compound 1, 1-[(2E)-4-(4-chlorophenyl)-2,3-difluoro-6-methoxy-2-hexenyl]-3-phenoxybenzene]",0,9 (9 = 100% kill),2 (2 = 26-35% kill),8 (8 = 86-99% kill),0
"C=CCC(/C(F)=C(\F)Cc1cccc(Oc2ccccc2)c1)c1ccc(Cl)cc1 (centres unmarked) [Compound 2, 1[(2E)-4-(4-chlorophenyl)-2,3-difluoro-2,6-heptadienyl]-3-phenoxybenzene]",9 (9 = 100% kill),9 (9 = 100% kill),9 (9 = 100% kill),9 (9 = 100% kill),0
